Columns and labels:
HIV 115-mer [1] = experiment: Effect of unirradiated isopsoralen on PCR amplification; type: biochemical; conditions: for Counts (CPM): unirradiated, 30 cycles, 42200 without AMDMIP
Description: To systematically evaluate the effect of the presence of increasing concentrations of isopsoralen on PCR, AMDMIP (0, 100, 200, 400 µg/ml) was added to 10^7 copies of HIV 115-mer as template. PCR was then carried out for 30 cycles in the presence of α-^32P-dCTP. The PCR product was run on denaturing polyacrylamide gel and autoradiographed. The bands were thereafter cut and counted.

human placental DNA = experiment: PCR amplification with unirradiated AMDMIP and DMSO co-solvent; type: biochemical; conditions: for CPM of product bands: AMDMIP 200 µg/ml unirradiated
Description: In this example, the effect of DMSO on PCR amplification in the presence of high concentrations of sterilizing compound (AMDMIP) was investigated. Samples were prepared for PCR which contained 1 µg of human placental DNA either with or without (unirradiated) AMDMIP (200 µg/ml). The samples were amplified 30 cycles under standard PCR conditions in the presence of 0%, 1%, 5% or 10% DMSO. The reaction mix contained α-^32P-dCTP. Following amplification, the samples were analyzed by PAGE (data not shown).

HIV 115-mer [2] = experiment: PCR sterilization with pre-irradiated compound (photoproduct) added to PCR product; type: biochemical
Description: AMDMIP photoproduct was made by irradiating AMDMIP (using the CE-III device) in 1 x Taq buffer (50 mM KCL, 2.5 mM MgCl2, 10 mM Tris, pH 8.5, 200 µg/ml gelatin) in a separate vessel for 15 minutes at room temperature (RT). Aliquots of AMDMIP photoproduct and the unirradiated compound were added (by pipetting) at 50, 100, 200 and 300 µg/ml to 1 µl aliquots of a 10^6 dilution of PCR product copies. PCR product was provided by a) preparing template, b) providing template, c) providing PCR reagents, d) providing polymerase, e) mixing PCR reagents, template, and polymerase to initiate PCR, f) cycling to synthesize PCR product. Step a): Template Preparation. The templates were derived from actual patient samples. Ficoll-Hypaque separated peripheral blood mononuclear cells (PBMCs) are prepared from individuals enrolled in a longitudinal AIDS study. Approximately 1 X 10^6 cells are added to 10 ml of RPMI containing 10% fetal calf serum. The cells are pelleted by centrifugation at 200 x g for 5 minutes and washed twice with 10 ml PBS. […]
Again, to evaluate the efficacy of this method of sterilization, a subsequent polymerase chain reaction was carried out for 30 cycles in the presence of α-^32P-dCTP. PCR product was then quantitated by running gels (see above), cutting the bands (detected by autoradiography) and counting the bands on a commercial scintillation counter. […]

[3] = system: DNA polymerase I from E. coli. B; conditions: Piette and Hearst 1983; nick-translating a double-stranded template; cited from earlier work

Compound	concentrations compatible with the PCR system (HIV 115-mer [1]; HIV 115-mer system)	Counts (CPM) (HIV 115-mer [1]; [AMDMIP] 100 µg/ml)	Counts (CPM) (HIV 115-mer [1]; [AMDMIP] 200 µg/ml)	Counts (CPM) (HIV 115-mer [1]; [AMDMIP] 400 µg/ml)	amplification with unirradiated AMDMIP (human placental DNA; 200 µg/ml, no DMSO, 30 cycles)	CPM of product bands (human placental DNA; 0% DMSO) [CPM]	CPM of product bands (human placental DNA; 1% DMSO) [CPM]	CPM of product bands (human placental DNA; 5% DMSO)	CPM of product bands (human placental DNA; 10% DMSO)	sterilization of PCR (30 cycles, autoradiography) (HIV 115-mer [2]; unirradiated AMDMIP at the same concentration as the photoproduct)	sterilization of PCR (30 cycles, autoradiography) (HIV 115-mer [2]; unirradiated compound at 50, 100, 200 and 300 µg/ml)	inhibition of E. Coli polymerase I by covalently bound monoadducts [3]
4'-Aminomethyl-4,5'-dimethylisopsoralen [AMDMIP]	up to 400 µg/ml	77200	77500	69400	virtually no detectable amplification product	2500	2800	86,000 CPM	102,000 CPM	PCR product is clearly evident	no sterilization	
Cc1cc2occc2c2oc(=O)ccc12 [MIP, 5-Methylisopsoralen]												not inhibited
